In this series the test system is endotoxemic pigs (E. coli endotoxin infusion).
[1] abbreviates: during the endotoxemic period, versus fat emulsion.

The record followed here is patent US20020037933A1, “Management of septic shock” (priority 2000, published 2002).

`CC(C)c1cccc(C(C)C)c1O` [propofol, 2,6-diisopropylphenol]: the “deaths from hypotension and/or release of gut bacteria into the bloodstream” value (already anaesthetised endotoxaemic pigs) is “No deaths”. Further, under setting [1], the “arterial carbon dioxide tension (PaCO2)” value is “lower” and the “arterial oxygen tension (PaO2)” value is recorded as “higher”. The “counteracting endotoxin induced deterioration of arterial oxygen tension (PaO2)” value (endotoxaemic pigs) is “effective”.
